Experiment [1] relates to E. coli ATCC 25922. In words: Minimum inhibitory concentration (broth microdilution, CLSI), E. coli ATCC 25922. The class given is cell-based. The protocol: (§1) Minimum inhibitory concentrations for the example compounds herein are determined by the broth microdilution method in accordance with the Clinical and Laboratory Standards Institute (CLSI) guidelines. In brief, organism suspensions are adjusted to a 0.5 McFarland standard to yield a final inoculum between 3×10^5 and 7×10^5 colony-forming units (CFU)/mL. Compound dilutions and inocula are made in sterile, cation adjusted Mueller-Hinton Broth (Beckton Dickinson). The inoculum is prepared by suspension of a colony from an agar plate that is prepared the previous day. Bacteria are suspended in sterile saline and added to each assay plate to obtain a final concentration of 5×10^5 CFU/mL. An inoculum volume of 100 μL is added to wells containing 100 μL of broth with 2-fold serial dilutions of the compound. All inoculated microdilution trays are incubated in ambient air at 35° C. for 18-24 hours. Following incubation, the lowest concentration of the compound that prevents visible growth (OD 600 nm<0.05) is recorded as the MIC. […] Performance of the assay is monitored by the use of laboratory quality-control strains and a compound with a defined MIC spectrum (such as levofloxacin), in accordance with CLSI guidelines. Compounds are tested against multiple microbiologic panels. Panels include: 1) a multi-species primary screening panel that includes multiple defined AG-R mechanisms; 2) a panel of isogenic strains carrying different common mechanisms of AG-R that allows characterization of the SAR for AMEs, RMTs, and entry and efflux resistance mechanisms; and 3) panels of recent clinical isolates selected from Phase 3 studies and ongoing global surveillance.

In experiment [2] the test system is E. coli efflux parent. In words: MIC broth microdilution, E. coli efflux parent strain. The class given is cell-based. The protocol:
as §1

Experiment [3] deals with E. coli Δefflux (tolC efflux pump knocked-out). In words: MIC broth microdilution, E. coli Δefflux strain (tolC knocked out). In kind it is cell-based. The protocol: as §1
Experiment [4] deals with P. aeruginosa ATCC 27853. In words: MIC broth microdilution, P. aeruginosa ATCC 27853. The settings on record: Table 1; geometric mean. In kind it is cell-based. On the procedure:
as §1

Experiment [5] has as its system P. aeruginosa efflux parent. Nature of the experiment: MIC broth microdilution, P. aeruginosa efflux parent strain. The class given is cell-based. The settings on record: Table 1; geometric mean. The protocol:
as §1

The subject of experiment [6] is P. aeruginosa Δefflux (MexAB-OprM, MexCD-OprJ, MexEF-OprN knocked out). Nature of the experiment: MIC broth microdilution, P. aeruginosa Δefflux strain. The class given is cell-based. The settings on record: Table 1, MexEF-OprN efflux pumps knocked out. The protocol:
as §1

Experiment [7] relates to translation. In words: Translation Inhibition Assay. The class given is biochemical. The settings on record: Table 1. The source says: Biological Example 2: Translation Inhibition Assay
Experiment [8] concerns E. coli isogenic strain empty vector. Nature of the experiment: MIC broth microdilution, E. coli isogenic strain, empty vector. In kind it is cell-based. The conditions noted are these: for Geometric Mean MIC values, E. coli isogenic strains, empty vector: Table 2. The protocol:
as §1

Experiment [9] concerns E. coli isogenic strain aac(6′)-Ib. In words: MIC broth microdilution, E. coli isogenic strain aac(6′)-Ib. In kind it is cell-based. The conditions noted are these: for Geometric Mean MIC values, E. coli isogenic strains, aac(6′)-Ib: Table 2. On the procedure:
as §1

The test system of experiment [10] is E. coli isogenic strain aph(3′)-II. In words: MIC broth microdilution, E. coli isogenic strain aph(3′)-II. In kind it is cell-based. The settings on record: for Geometric Mean MIC values, E. coli isogenic strains, aph(3′)-II: Table 2. The protocol:
as §1

Experiment [11] has as its system E. coli isogenic strain aph(3′)-Ia. Nature of the experiment: MIC broth microdilution, E. coli isogenic strain aph(3′)-Ia. In kind it is cell-based. The conditions noted are these: for Geometric Mean MIC values, E. coli isogenic strains, aph(3′)-Ia: Table 2, aph(3′)-Ia has activity at both the 3′-hydroxy and 5″-hydroxy positions. On the procedure:
as §1

The test system of experiment [12] is E. coli isogenic strain ant(4′)-Ia. In words: MIC broth microdilution, E. coli isogenic strain ant(4′)-Ia. The class given is cell-based. The conditions noted are these: Table 2. On the procedure:
as §1

Experiment [13] relates to E. coli isogenic strain armA. In words: MIC broth microdilution, E. coli isogenic strain armA. In kind it is cell-based. The settings on record: for Geometric Mean MIC values, E. coli isogenic strains, armA: Table 2. On the procedure:
as §1

The test system of experiment [14] is E. coli isogenic strain nmpA. Nature of the experiment: MIC broth microdilution, E. coli isogenic strain nmpA. The class given is cell-based. The conditions noted are these: for Geometric Mean MIC values, E. coli isogenic strains, nmpA: Table 2. The protocol:
as §1

In brackets after ≈: the same amount, converted by molar mass.

For `NCC1OC(OC2C(CO)OC(OC3C(O)C(N)CC(N)C3OC3OC(CN)C(O)C(F)(F)C3N)C2O)C(N)C(O)C1O` (stereo not shown) [drawing 854], the “Geometric Mean MIC values, E. coli ATCC 25922” value in [1] (Table 1) stood at 4 µg/mL. For the same compound, in experiment [2] (Table 1), the “Geometric Mean MIC values, E. coli efflux parent” value turned out to be 4 µg/mL. The “Geometric Mean MIC values, E. coli Δefflux” value in [3] (Table 1) is 2 µg/mL. Moreover, the “Geometric Mean MIC values, P. aeruginosa ATCC 27853” value in experiment [4] turned out to be 4 µg/mL. The “Geometric Mean MIC values, P. aeruginosa efflux parent” value in [5] stood at 8 µg/mL. The “Geometric Mean MIC values, P. aeruginosa Δefflux” value in experiment [6] is 1 µg/mL. This compound displayed a half-inhibitory concentration (IC50) in [7] of 0.063 µM.
For `NCC1CCC(N)C(OC2C(N)CC(N)C(O)C2OC2OC(CO)C(OC3OC(CN)C(O)C(O)C3N)C2O)O1` (stereo not shown) [drawing 856, reference compound], the “Geometric Mean MIC values, E. coli ATCC 25922” value in experiment [1] (Table 2) was 1.1 µg/mL. In addition, in experiment [2] (Table 2), the “Geometric Mean MIC values, E. coli efflux parent” value worked out at 0.87 µg/mL. Further, the “Geometric Mean MIC values, E. coli Δefflux” value in [3] (Table 2) is 0.87 µg/mL. For the same compound, the “Geometric Mean MIC values, E. coli isogenic strains, empty vector” value (shortened to “Geometric Mean MIC values … empty vector”) in [8] came out at 0.61 µg/mL. Further, the “Geometric Mean MIC values, E. coli isogenic strains, aac(6′)-Ib” value (from here on “Geometric Mean MIC values … aac(6′)-Ib”) in experiment [9] turned out to be 5.7 µg/mL. The “Geometric Mean MIC values, E. coli isogenic strains, aph(3′)-II” value (shortened to “Geometric Mean MIC values … aph(3′)-II”) in [10] is 0.35 µg/mL. Also, in experiment [11], the “Geometric Mean MIC values, E. coli isogenic strains, aph(3′)-Ia” value (“Geometric Mean MIC values … aph(3′)-Ia” below) is 64 µg/mL. The “Geometric Mean MIC values, E. coli isogenic strains, ant(4′)-Ia” value (from here on “Geometric Mean MIC values … ant(4′)-Ia”) in [12] amounted to 0.5 µg/mL. Also, in [13], the “Geometric Mean MIC values, E. coli isogenic strains, armA” value (“Geometric Mean MIC values … armA” for short) is 0.74 µg/mL. For the same compound, the “Geometric Mean MIC values, E. coli isogenic strains, nmpA” value (“Geometric Mean MIC values … nmpA” for short) in experiment [14] was >64 µg/mL.
`CC(N)C1CCC(N)C(OC2C(N)CC(N)C(O)C2OC2OC(CO)C(OC3OC(CN)C(O)C(O)C3N)C2O)O1` (stereo not shown) [drawing 857]: in experiment [1] (Table 2), the “Geometric Mean MIC values, E. coli ATCC 25922” value came out at 1.4 µg/mL. Besides, in experiment [2] (Table 2), the “Geometric Mean MIC values, E. coli efflux parent” value amounted to 1 µg/mL. In addition, the “Geometric Mean MIC values, E. coli Δefflux” value in experiment [3] (Table 2) is 0.84 µg/mL. Moreover, the “Geometric Mean MIC values … empty vector” value in experiment [8] was found to be 0.84 µg/mL. The “Geometric Mean MIC values … aac(6′)-Ib” value in experiment [9] is 1 µg/mL. In addition, the “Geometric Mean MIC values … aph(3′)-II” value in experiment [10] came out at 0.71 µg/mL. For the same compound, the “Geometric Mean MIC values … aph(3′)-Ia” value in experiment [11] was 64 µg/mL. The “Geometric Mean MIC values … ant(4′)-Ia” value in experiment [12] turned out to be 0.71 µg/mL. For the same compound, the “Geometric Mean MIC values … armA” value in experiment [13] was found to be 1.5 µg/mL. The “Geometric Mean MIC values … nmpA” value in experiment [14] was >64 µg/mL.
Consider `CC(N)C1CCC(N)C(OC2C(N)CC(N)C(O)C2OC2OC(CO)C(OC3OC(CN)C(O)C(O)C3N)C2O)O1` (stereo not shown) [drawing 858], for which, in experiment [1] (Table 2), the “Geometric Mean MIC values, E. coli ATCC 25922” value turned out to be 2 µg/mL. In [2] (Table 2), the “Geometric Mean MIC values, E. coli efflux parent” value is 1 µg/mL. Moreover, in [3] (Table 2), the “Geometric Mean MIC values, E. coli Δefflux” value is 1 µg/mL. Further, in [8], the “Geometric Mean MIC values … empty vector” value is 1 µg/mL. For the same compound, the “Geometric Mean MIC values … aac(6′)-Ib” value in experiment [9] was determined as 1 µg/mL. In experiment [10], the “Geometric Mean MIC values … aph(3′)-II” value is 1 µg/mL. In experiment [11], the “Geometric Mean MIC values … aph(3′)-Ia” value was >64 µg/mL. Also, the “Geometric Mean MIC values … ant(4′)-Ia” value in experiment [12] worked out at 0.5 µg/mL. The “Geometric Mean MIC values … armA” value in [13] came to 1.4 µg/mL. In addition, the “Geometric Mean MIC values … nmpA” value in [14] was >64 µg/mL.
As to `NCC1OC(OC2C(CO)OC(OC3C(O)C(N)CC(N)C3OC3OC(C4(N)CC4)CCC3N)C2O)C(N)C(O)C1O` (stereo not shown) [drawing 859], the “Geometric Mean MIC values, E. coli ATCC 25922” value in [1] (Table 2) amounted to 1 µg/mL. Further, in [2] (Table 2), the “Geometric Mean MIC values, E. coli efflux parent” value was found to be 1 µg/mL. In addition, the “Geometric Mean MIC values, E. coli Δefflux” value in [3] (Table 2) was 1 µg/mL. In experiment [8], the “Geometric Mean MIC values … empty vector” value was found to be 0.5 µg/mL. Also, the “Geometric Mean MIC values … aac(6′)-Ib” value in experiment [9] came to 1 µg/mL. In addition, in experiment [10], the “Geometric Mean MIC values … aph(3′)-II” value came to 1 µg/mL. In addition, in experiment [11], the “Geometric Mean MIC values … aph(3′)-Ia” value was >32 µg/mL. Moreover, the “Geometric Mean MIC values … armA” value in experiment [13] was 4 µg/mL. Moreover, the “Geometric Mean MIC values … nmpA” value in [14] worked out at 32 µg/mL.
`CO[C@@H]1[C@@H](O[C@@H]2O[C@H](CO)[C@@H](O[C@H]3O[C@@H](CN)[C@@H](O)[C@H](O)[C@H]3N)[C@H]2O)[C@H](O[C@H]2O[C@H](CN)CC[C@H]2N)[C@@H](N)C[C@H]1N` [drawing 889]: the MIC in experiment [1] (Escherichia coli, ATCC25922, E. coli ATCC 25922, broth microdilution, read-out: Geometric Mean MIC values, E. coli ATCC 25922) worked out at 1 µg/mL (≈ 1.68 µM); in experiment [2] (Escherichia coli, E. coli efflux parent strain, read-out: Geometric Mean MIC values, E. coli efflux parent) it was 0.5 µg/mL (≈ 0.838 µM); in experiment [8] (Escherichia coli, read-out: Geometric Mean MIC values, E. coli isogenic strains empty vector) it was 0.5 µg/mL (≈ 0.838 µM); in [9] (Escherichia coli, read-out: Geometric Mean MIC values, E. coli isogenic strains aac(6′)-Ib), 8 µg/mL (≈ 13.4 µM); in [10] (Escherichia coli, read-out: Geometric Mean MIC values, E. coli isogenic strains aph(3′)-II) it was 0.5 µg/mL (≈ 0.838 µM); in [11] (Escherichia coli, read-out: Geometric Mean MIC values, E. coli isogenic strains aph(3′)-Ia), 16 µg/mL (≈ 26.8 µM). In addition, the minimal inhibitory concentration (MIC) in [13] (Escherichia coli, read-out: Geometric Mean MIC values, E. coli isogenic strains armA) is 0.5 µg/mL (≈ 0.838 µM); in [14] (Escherichia coli, read-out: Geometric Mean MIC values, E. coli isogenic strains npmA), > 32 µg/mL. Further, the “Geometric Mean MIC values, E. coli Δefflux” value in experiment [3] (E. coli Δefflux) is 0.5 µg/mL.

The record behind these values is US11414450B1, “Aminoglycosides and uses thereof” (REVAGENIX, INC., priority 2017, dated 2022).
